Measurements: article PMC7787666, “BUB-1 targets PP2A:B56 to regulate chromosome congression during meiosis I in C. elegans oocytes” (eLife, 2020)
Where no end group is shown, it is not given here. [ ]: non-standard residue; d: D form. The star is where a group is joined. FITC = O=C1OC2(c3ccc(O)cc3Oc3cc(O)ccc32)c2ccc(NC(=S)*)cc21; pS = N[C@@H](COP(=O)(O)O)C(=O)O; Ahx = NCCCCCC(=O)O

Tests used:
[1] = system: purified recombinant PPTR-2; test: Fluorescence polarisation, LxxIxE motif-containing FITC-labelled synthetic peptide with purified recombinant PPTR-2; format: binding, C. elegans; details: FITC-labelled peptide 0.5–1 µM, increasing PPTR-2 (1:2 serial dilution), FP buffer 50 mM NaP pH 7.5, 150 mM NaCl, 0.5 mM TCEP, 30 min, PheraStar FS, technical triplicates, representative experiment; for PPTR-2 interaction (binding) assessed using fluorescence polarisation: Figure 4C
Experimental: Figure 4. B56α^PPTR-1 and B56γ^PPTR-2 are targeted through a LxxIxE motif in BUB-1. (A) C. elegans BUB-1 LxxIxE SLiM is shown aligned with BubR1 and Repoman short linear motifs (SLiMs). The only change within the LxxIxE sequence itself is the presence of a valine instead of isoleucine, which still fits within the consensus ([Wang et al., 2016]). The alignment was performed using Clustal Omega and visualised with Jalview ([Waterhouse et al., 2009]). (B) Disorder prediction of full-length BUB-1 was done using IUPRED2A ([Erdős and Dosztányi, 2020]). All prevuously characterised BUB-1 domains fall within ordered regions < 0.5. The putative SLiM is in a disordered region (IUPRED score ~0.8). (C) PPTR-2 interaction with a LxxIxE motif-containing synthetic peptide was assessed using fluorescence polarisation. Increasing amounts of purified recombinant PPTR-2 were incubated with FITC-labelled wild-type or L282A,V285A mutant peptide. […] (D) Schematic showing the LxxIxE motif in BUB-1 and the BUB-1^L282A,V285A mutant. […] (F) PPTR-1::GFP levels were measured in wild-type and BUB-1^L282A,V285A oocytes throughout meiosis I and the mean ± s.e.m is shown in the graph. […] (H) Midbivalent/central spindle PPTR-2::GFP levels were measured in wild-type and BUB-1^L282A,V285A oocytes throughout meiosis I, and the mean ± s.e.m is shown in the graph. […] (J) Representative, spindle-wide (20 pixels) line profiles are shown for wild-type (top) and BUB-1^L282A,V285A mutant (bottom) measured in prometaphase I (40 s before metaphase I). […] (K) The angle of bivalents 80 s before segregation in meiosis I relative to the average angle of the spindle was measured in wild-type and in BUB-1^L282A,V285A oocytes. […] N represents number of oocytes and n number of bivalents measured. p value shown in the figure was obtained using a Mann–Whitney test. (L) Distance of bivalents 80 s before segregation in meiosis I relative to the centre of the spindle was measured in wild-type and BUB-1^L282A,V285A oocytes. […]

[2] = system: phospho Ser 283-specific BUB-1 antibody; test: Peptide competition of anti-phospho Ser 283 BUB-1 antibody in immunofluorescence; details: antibody dilutions 1:1,000 and 1:10,000 incubated with 1 µM and 10 µM peptide; fixed oocytes
Experimental: The antibody was generated by Moravian Biotec by immunising rabbits with the following peptide: RRRHL(pS)PVSEKTC. Serum was adsorbed with a non-phosphorylated peptide (RRRHLSPVSEKTC) followed by affinity purification with the antigenic, phosphorylated peptide. Different fractions were tested in immunofluorescence by incubating different dilutions (1:1,000 and 1:10,000) with 1 µM and 10 µM of either non-phosphorylated or phosphorylated peptide.
Worms were placed on 4 µl of M9 worm buffer in a poly-D-lysine (Sigma, P1024)-coated slide, and a […] coverslip was gently laid on top. Once the worms extruded the embryos, slides were placed on a metal block on dry ice for >10 min. The coverslip was then flicked off with a scalpel blade, and the samples were fixed in methanol at […] for 30 min. After blocking in phosphate-buffered saline (PBS) buffer plus 3% bovine serum albumin and 0.1% Triton X-100 (AbDil), samples were incubated overnight at 4°C with anti-BUB-1 ([Desai et al., 2003]) and anti-tubulin (1/400, clone DM1α, Sigma–Aldrich) in AbDil. After three washes with PBS plus 0.1% Tween, secondary antibodies were added at 1/1000 (goat anti-mouse and goat anti-rabbit conjugated to Alexa Fluor 488, Alexa Fluor 594, Thermo Scientific). […]

Substance	competition of antibody signal in immunofluorescence [2]	PPTR-2 interaction (binding) assessed using fluorescence polarisation [1]	further results
FITC-Ahx-NPRRRHLphSPVSEKTVDDEEE [pBUB-1, FITC-labelled BUB-1 LxxIxE peptide phosphorylated at serine 283]			relative affinity for recombinant B56γ^PPTR-2, phosphorylated versus non-phosphorylated peptide ([1]; Figure 5F): higher affinity than non-phosphorylated LxxIxE peptide
RRRHLSPVSEKTC	Only the phosphorylated peptide compited out the signal		
RRRHL[pS]PVSEKTC	Only the phosphorylated peptide compited out the signal		
{FITC-Ahx}-NPRRRHASPASEKTVDDEEE [LAVA, FITC-labelled L282A,V285A mutant BUB-1 peptide]		this binding is abolished	
{FITC-Ahx}-NPRRRHLSPVSEKTVDDEEE [BUB-1, FITC-labelled wild-type BUB-1 LxxIxE motif-containing synthetic peptide]		binds to purified recombinant PPTR-2	
